# Where two headings read alike, the source gives them in different places.
# How the values were obtained:
# Assay type in all cases: binding
# [1] = molecular target: T1, HeLa cell extract proteins (Homo sapiens, UniProt O00746)
# T1 construct: endogenous in cells; host or cells: HeLa cell extract
# T1 sequence (O00746 29-187): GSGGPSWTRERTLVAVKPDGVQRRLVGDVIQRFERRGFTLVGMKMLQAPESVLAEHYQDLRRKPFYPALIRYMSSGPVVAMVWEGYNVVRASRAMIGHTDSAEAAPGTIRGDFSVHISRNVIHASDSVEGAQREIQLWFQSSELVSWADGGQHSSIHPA
# [2] = molecular target: T2, HeLa cell extract proteins (Homo sapiens, UniProt O60547)
# T2 construct: endogenous in cells; host or cells: HeLa cell extract
# T2 sequence (O60547 1-372): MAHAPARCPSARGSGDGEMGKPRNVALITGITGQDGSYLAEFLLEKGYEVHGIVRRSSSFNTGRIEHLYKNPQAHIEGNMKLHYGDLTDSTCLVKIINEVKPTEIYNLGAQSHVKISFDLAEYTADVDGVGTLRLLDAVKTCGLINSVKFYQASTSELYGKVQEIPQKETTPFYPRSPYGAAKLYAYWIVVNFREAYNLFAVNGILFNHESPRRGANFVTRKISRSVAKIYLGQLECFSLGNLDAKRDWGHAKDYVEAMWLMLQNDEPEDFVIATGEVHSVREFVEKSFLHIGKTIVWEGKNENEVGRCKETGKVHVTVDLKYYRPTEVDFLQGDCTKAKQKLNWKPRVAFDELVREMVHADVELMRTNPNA
# [3] = molecular target: T3, HeLa cell extract proteins (Homo sapiens, UniProt O75947)
# T3 construct: endogenous in cells; host or cells: HeLa cell extract
# T3 sequence (O75947 whole entry): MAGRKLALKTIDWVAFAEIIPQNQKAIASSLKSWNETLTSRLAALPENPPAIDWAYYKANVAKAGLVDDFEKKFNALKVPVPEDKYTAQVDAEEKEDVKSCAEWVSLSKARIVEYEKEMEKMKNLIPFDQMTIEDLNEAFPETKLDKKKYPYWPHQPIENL
# [4] = molecular target: T4, HeLa cell extract proteins (Homo sapiens, UniProt O95816)
# T4 construct: endogenous in cells; host or cells: HeLa cell extract
# T4 sequence (O95816 whole entry): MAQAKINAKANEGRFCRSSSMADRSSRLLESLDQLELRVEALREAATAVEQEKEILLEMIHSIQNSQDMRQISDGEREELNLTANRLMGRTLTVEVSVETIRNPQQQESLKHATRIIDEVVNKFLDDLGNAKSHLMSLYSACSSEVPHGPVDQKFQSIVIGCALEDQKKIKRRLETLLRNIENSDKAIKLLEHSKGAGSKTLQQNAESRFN
# [5] = molecular target: T5, HeLa cell extract proteins (Homo sapiens, UniProt P04179)
# T5 construct: endogenous in cells; host or cells: HeLa cell extract
# T5 sequence (P04179 25-222): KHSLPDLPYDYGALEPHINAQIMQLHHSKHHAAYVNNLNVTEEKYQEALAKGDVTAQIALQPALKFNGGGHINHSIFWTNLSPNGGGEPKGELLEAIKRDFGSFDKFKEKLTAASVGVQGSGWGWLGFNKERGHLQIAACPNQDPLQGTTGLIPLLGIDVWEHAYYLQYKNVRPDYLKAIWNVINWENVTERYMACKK
# [6] = molecular target: T6, HeLa cell extract proteins (Homo sapiens, UniProt P06733)
# T6 construct: endogenous in cells; host or cells: HeLa cell extract
# T6 sequence (P06733 whole entry): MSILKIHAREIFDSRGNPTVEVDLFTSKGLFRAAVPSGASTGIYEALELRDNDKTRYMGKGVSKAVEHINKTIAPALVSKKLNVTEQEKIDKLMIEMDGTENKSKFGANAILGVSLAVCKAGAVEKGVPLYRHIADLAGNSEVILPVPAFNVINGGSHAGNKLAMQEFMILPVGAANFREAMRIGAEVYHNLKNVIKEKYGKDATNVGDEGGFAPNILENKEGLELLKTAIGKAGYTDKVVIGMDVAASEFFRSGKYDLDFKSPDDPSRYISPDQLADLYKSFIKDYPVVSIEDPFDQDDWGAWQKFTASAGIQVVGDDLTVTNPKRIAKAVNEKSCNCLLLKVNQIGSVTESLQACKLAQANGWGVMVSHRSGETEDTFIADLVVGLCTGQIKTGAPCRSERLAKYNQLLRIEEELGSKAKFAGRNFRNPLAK
# [7] = molecular target: T7, HeLa cell extract proteins (Homo sapiens, UniProt P38646)
# T7 construct: endogenous in cells; host or cells: HeLa cell extract
# T7 sequence (P38646 47-679): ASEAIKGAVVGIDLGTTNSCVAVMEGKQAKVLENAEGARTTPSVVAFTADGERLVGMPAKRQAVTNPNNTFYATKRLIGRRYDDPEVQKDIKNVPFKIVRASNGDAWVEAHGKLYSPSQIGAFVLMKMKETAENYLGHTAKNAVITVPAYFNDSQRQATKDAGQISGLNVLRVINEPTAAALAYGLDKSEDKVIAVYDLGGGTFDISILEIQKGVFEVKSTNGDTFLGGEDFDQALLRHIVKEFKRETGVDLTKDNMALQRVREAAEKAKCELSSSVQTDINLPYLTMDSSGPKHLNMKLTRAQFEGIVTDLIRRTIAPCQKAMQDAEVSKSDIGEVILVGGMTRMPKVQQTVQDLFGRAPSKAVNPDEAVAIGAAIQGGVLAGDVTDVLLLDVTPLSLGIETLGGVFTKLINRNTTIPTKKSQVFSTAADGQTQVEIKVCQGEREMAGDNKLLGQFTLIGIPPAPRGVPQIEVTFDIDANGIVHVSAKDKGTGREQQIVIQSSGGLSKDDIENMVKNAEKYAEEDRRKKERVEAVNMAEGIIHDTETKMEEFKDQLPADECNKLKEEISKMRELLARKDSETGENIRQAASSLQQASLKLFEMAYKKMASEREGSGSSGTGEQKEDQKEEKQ
# [8] = molecular target: T8, HeLa cell extract proteins (Homo sapiens, UniProt Q6UXN9)
# T8 construct: endogenous in cells; host or cells: HeLa cell extract
# T8 sequence (Q6UXN9 whole entry): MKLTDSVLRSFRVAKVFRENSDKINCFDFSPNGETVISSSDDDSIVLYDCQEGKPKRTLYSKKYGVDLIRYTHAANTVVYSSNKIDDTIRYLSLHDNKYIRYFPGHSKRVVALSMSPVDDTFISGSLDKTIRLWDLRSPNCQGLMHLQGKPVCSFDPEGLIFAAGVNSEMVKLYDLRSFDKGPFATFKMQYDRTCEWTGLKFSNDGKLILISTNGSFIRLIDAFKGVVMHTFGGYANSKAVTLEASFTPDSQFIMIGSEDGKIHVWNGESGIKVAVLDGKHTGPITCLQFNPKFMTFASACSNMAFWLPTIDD
# [9] = molecular target: T9, HeLa cell extract proteins (Homo sapiens, UniProt Q99683)
# T9 construct: endogenous in cells; host or cells: HeLa cell extract
# T9 sequence (Q99683 1-1374): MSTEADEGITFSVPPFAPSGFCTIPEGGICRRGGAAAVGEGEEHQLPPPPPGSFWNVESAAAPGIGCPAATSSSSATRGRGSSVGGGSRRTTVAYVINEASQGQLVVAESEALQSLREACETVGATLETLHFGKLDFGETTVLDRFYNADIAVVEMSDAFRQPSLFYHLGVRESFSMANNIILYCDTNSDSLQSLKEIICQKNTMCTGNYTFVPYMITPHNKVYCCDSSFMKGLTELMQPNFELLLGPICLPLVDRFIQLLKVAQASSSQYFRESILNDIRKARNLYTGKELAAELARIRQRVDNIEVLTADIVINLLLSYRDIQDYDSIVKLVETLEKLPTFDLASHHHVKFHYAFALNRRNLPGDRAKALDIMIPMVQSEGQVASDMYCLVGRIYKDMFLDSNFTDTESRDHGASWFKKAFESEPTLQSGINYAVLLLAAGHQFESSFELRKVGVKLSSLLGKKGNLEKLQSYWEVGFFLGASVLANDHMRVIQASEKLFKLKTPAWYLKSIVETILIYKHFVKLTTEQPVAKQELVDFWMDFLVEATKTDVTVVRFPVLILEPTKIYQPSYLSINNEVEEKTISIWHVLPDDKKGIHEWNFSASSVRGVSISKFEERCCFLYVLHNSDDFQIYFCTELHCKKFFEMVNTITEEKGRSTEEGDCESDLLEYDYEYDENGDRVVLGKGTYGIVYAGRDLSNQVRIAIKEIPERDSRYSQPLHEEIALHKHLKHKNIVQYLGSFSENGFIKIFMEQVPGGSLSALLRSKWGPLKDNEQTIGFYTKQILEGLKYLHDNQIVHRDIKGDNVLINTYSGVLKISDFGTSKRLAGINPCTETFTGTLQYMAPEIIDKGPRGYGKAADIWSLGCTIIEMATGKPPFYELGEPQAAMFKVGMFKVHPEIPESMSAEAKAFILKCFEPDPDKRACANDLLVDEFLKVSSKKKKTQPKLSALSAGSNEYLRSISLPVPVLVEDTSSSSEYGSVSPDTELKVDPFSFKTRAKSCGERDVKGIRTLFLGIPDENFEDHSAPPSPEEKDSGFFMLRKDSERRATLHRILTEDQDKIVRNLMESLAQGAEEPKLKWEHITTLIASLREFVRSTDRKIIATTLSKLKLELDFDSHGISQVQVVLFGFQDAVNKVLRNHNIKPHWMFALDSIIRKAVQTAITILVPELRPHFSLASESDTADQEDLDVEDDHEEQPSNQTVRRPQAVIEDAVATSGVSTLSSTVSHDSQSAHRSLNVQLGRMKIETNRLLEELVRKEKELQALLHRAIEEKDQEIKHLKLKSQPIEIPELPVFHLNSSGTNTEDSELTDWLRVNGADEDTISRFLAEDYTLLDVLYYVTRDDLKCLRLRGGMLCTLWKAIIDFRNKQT
# [10] = HeLa, protein ENO1 (ISOFORM ALPHA-ENOLASE OF ALPHA-ENOLASE.)
# [11] = HeLa, protein MAP3K5 (MITOGEN-ACTIVATED PROTEIN KINASE KINASE KINASE 5)
SMILES,"fold changes relative to vehicle control ([1]; HeLa, protein NME4)","fold changes relative to vehicle control ([2]; HeLa, protein GMDS)","fold changes relative to vehicle control ([3]; protein ATP5H, HeLa)","fold changes relative to vehicle control ([4]; captured protein BAG2, HeLa)","fold changes relative to vehicle control ([5]; protein SOD2, HeLa)","fold changes relative to vehicle control [6, 10] [fold]","fold changes relative to vehicle control ([7]; protein HSPA9, HeLa)","fold changes relative to vehicle control ([8]; captured protein WDR82, HeLa)","fold changes relative to vehicle control ([9]; HeLa, protein MAP3K5)","fold changes relative to vehicle control ([2]; HeLa, captured protein GMDS)","fold changes relative to vehicle control ([3]; HeLa, captured protein ATP5H)","fold changes relative to vehicle control ([4]; HeLa, protein BAG2)","fold changes relative to vehicle control ([5]; HeLa, protein SOD2)","fold changes relative to vehicle control ([6]; HeLa, protein ENO1)","fold changes relative to vehicle control ([7]; HeLa, captured protein HSPA9)","fold changes relative to vehicle control ([8]; HeLa, captured protein WDR82)","fold changes relative to vehicle control [9, 11]",other results
Nc1nc2cccc(-c3ccccc3)c2n1Cc1ccc(Cl)c(Cl)c1 [compound 3],0.96,1.25,0.94,0.88,1.43,0.84,0.98,0.9,1.1,–,–,–,–,–,–,–,–,–
"Nc1nc2[nH]cc(CCc3ccc(C(=O)N[C@@H](CCC(=O)O)C(=O)O)cc3)c2c(=O)[nH]1 [PTX, pemetrexed]",–,–,–,–,–,–,–,–,–,–,–,–,–,–,–,–,–,fold changes relative to vehicle control [1]: 0.81; fold changes relative to vehicle control [2]: 1; fold changes relative to vehicle control [3]: 1.03; fold changes relative to vehicle control [4]: 0.95; fold changes relative to vehicle control [5]: 1.29; fold changes relative to vehicle control [6]: 1.14; fold changes relative to vehicle control [7]: 0.97; fold changes relative to vehicle control [8]: 0.72; fold changes relative to vehicle control [9]: 1.18
"Nc1nc2c(c(=O)[nH]1)N(C=O)C(CNc1ccc(C(=O)N[C@@H](CCC(=O)O)C(=O)O)cc1)CN2 (stereo partly drawn) [LEU, leucovorin]",1.04,–,–,–,–,–,–,–,–,1,0.91,0.96,1.14,1.07,1.05,0.8,1.13,–
CCCCCCOc1cccc(Cc2cnc(N)nc2N)c1 [compound 2],0.92,1.21,0.88,1.15,2.29,2.6,1.1,1.01,1.14,–,–,–,–,–,–,–,–,–
NCCOCCOCC(=O)Nc1nc2ncc(CNc3ccc(C(=O)NC(CCC(=O)O)C(=O)O)cc3)nc2c(=O)[nH]1 (stereo not drawn) [compound 6],0.81,–,–,–,–,–,–,–,–,0.98,0.92,0.97,1.65,1.26,0.99,0.89,1.12,–
CCCCCCOc1ccc(Cc2cnc(N)nc2N)cc1 [compound 1],0.97,1.06,1.11,0.9,1.91,1.47,0.95,0.75,1.03,–,–,–,–,–,–,–,–,–
NCCCNc1ccc(C(=O)NC(CCC(=O)O)C(=O)O)cc1 (stereo not drawn) [compound 7],0.98,–,–,–,–,–,–,–,–,1.12,0.96,0.97,1.35,0.9,0.97,0.97,1.09,–
